Measurements taken from paper PMC5055185, “Dual pharmacological inhibition of glutathione and thioredoxin systems synergizes to kill colorectal carcinoma stem cells” (Cancer Medicine, 2016).
“And” between values parts separate entries of the source, which are not always exact repeats. Equal entries are not always repeated.

Legend:
[1] = test system: CTOS76 colorectal cancer tissue‐originated spheroids; experiment: cell survival (trypan blue exclusion, 5 days), CTOS76; type: cell-based, human; settings: for IC50: CTOS76, cellular survival, 5 days
Excerpt: All experimental procedures were approved by the animal facility at Dokkyo Medical University (ID: 951) and were described elsewhere 10. The existence of CSCs has been experimentally proven through serial xenotransplantation and tumorigenesis 2, 14. […] These subcutaneous tumors were again subjected to enzymatic dissociation and some of the tumor cells were subcutaneously transplanted into other mice. […] Seven cases (CTOS:40, 42, 68, 71, 76, 86, 88) were used for in vitro experiments.
Modified procedures of CTOS culture 16 were described elsewhere 10. […] The culture medium was serum‐free advanced DMEM/F‐12 (GIBCO, Waltham, MA) supplemented with FGF‐2 (10 ng/mL, ReproCell, Yokohama, Japan), penicillin ([…], Wako, Osaka, Japan), streptomycin (0.1 mg/mL,Wako), gentamicin (50 μg/mL, Wako), and fungizone (0.25 μg/mL, GIBCO). DLD‐1 and HCT116 CRC cell lines were purchased from JCRB Cell Bank (Osaka, Japan) and RIKEN BioResource Center (Ibaraki, Japan), respectively. In order to estimate pharmacological side effects against normal tissues, human diploid fibroblasts were purchased (JCRB Cell Bank) as model cells. The origins of the fibroblasts were as follows: OUMS‐36 (embryo), TIG‐3 (fetal lung), TIG‐111 (dermal fibroblasts [DFs] from individual), TIG‐119 (DFs from individual), and TIG‐102 (DFs from individual). Adult DFs were purchased from Kurabo (Osaka, Japan). CRC cell lines and fibroblasts were maintained under supplier‐recommended culture conditions. Since the culture conditions are different between fibroblasts and CTOSs, we need to be cautious about the interpretation of data (i.e., lateral comparison between them). […] Colorectal CTOSs display augmented survival through maintaining epithelial structure with E‐cadherin 16. On the other hand, the establishment of conventional cell lines (adherent culture) are much less efficient because constant cell division and autonomous survival are required for the procedure. When we choose CTOSs instead of cancer cell lines, we lose the equivalent condition (adherent culture) as a trade‐off.
Each drug's half‐maximal inhibitory concentration (IC50) was calculated based on live cell number ratios (drug treated/untreated × 100%) obtained from serial dilution of drug concentration. The length of drug exposure was 5 days. Each number of live cells was counted automatically by trypan blue exclusion (LUNA automated cell counter, Logos Biosystems, Anyang, South Korea). Cancer spheroids were dispersed with serial treatments (20 min each) of TrypLE™ and Accumax™. Thus, IC50 was determined based on cellular survival, but not on proliferation.

[2] = test system: NRF2 target genes in human embryonic fibroblasts OUMS36 or TIG-3; experiment: qRT-PCR of NRF2 and TP53 target genes in fibroblasts; type: cell-based; settings: auranofin 2 μmol/L or piperlongumine 5 μmol/L for 24 h
Method: Total RNA was purified using RNAiso Plus (Takara, Osaka, Japan). Reverse transcription was performed using PrimeScript™ with gDNA Eraser (Takara). For quantifying the copy number of each mRNA, we used a StepOne™ Real‐Time PCR System (Applied Biosystems, Waltham, MA) and the Taqman® method. Data were calculated according to the modified delta‐cycle of threshold (ΔCT) method. Normalized Log2 expression was defined as follows: (Log2 expression of a gene of interest) = 30 (arbitrary constant) + (CT of 18S rRNA) − (CT of a gene of interest). We used Log2 parameter for statistical analysis because mRNA expression follows a log‐normal distribution, whereas ΔCT follows normal distribution. A gene‐specific fluorescent probe was designed using a web‐based program (https://qpcr.probefinder.com/organism.jsp). […] Gene‐specific Taqman® probes were purchased from Life Technologies, (Waltham, MA, for Cat#, see Table S1 SpreadSheet2). For PCR, Thunderbird® Probe qPCR mix (Toyobo, Osaka, Japan) was used and the PCR conditions consisted of 40 cycles of two steps (95°C for 15 sec and 60°C for 50 sec).
To investigate whether NRF2 compensation occurs in fibroblasts, we quantified gene induction of NRF2 target genes by auranofin (2 μmol/L for 24 h) or piperlongumine (5 μmol/L for 24 h). […] Basal phosphorylation of NRF2 was lower in fibroblasts, compared to CTOSs (Fig. S5B). The significance of expression changes due to the exposure were as follows: GCLM (Fig. S6, Aura: P = 0.001, up‐regulated, Pipe: P = 0.009, up‐regulated), TXNRD1 (Fig. S6, Aura: P = 0.001, up‐regulated, Pipe: P = 0.439), and G6PD (Fig. S6, Aura: P = 0.001, up‐regulated, Pipe: P = 0.130).
Human embryonic fibroblasts OUMS36 or TIG-3 was incubated with designated concentration of inhibitor for 24 hours. mRNA expression of each gene was quantified by real-time RT-PCR and expression level was indicated as relative Log2 expression. Each bar indicates mean value of Log2 expression (n=3 at different passage points). Error bar indicates standard deviation. P-values of difference are described in Results.

[3] = test system: phosphorylated NRF2 in embryonic fibroblasts (OUMS and TIG3); experiment: NRF2 phosphorylation by western blotting, embryonic fibroblasts; type: cell-based, human; settings: 24 hours, Auranofin 2µM, Piperlongumine 5µM

Structure (SMILES) | IC50 [1] | Ratio of survived cells (Drugs treated/Untreated), Average ([1]; CTOS#76, Aura 1 microM) | Ratio of survived cells (Drugs treated/Untreated), Average ([1]; CTOS#76, Aura 2 microM) | Ratio of survived cells (Drugs treated/Untreated), Average ([1]; CTOS#76, Aura 4 microM) | Ratio of survived cells (Drugs treated/Untreated), single passage points # ([1]; CTOS#76, Aura 4 microM) | G6PD mRNA expression change [2] | GCLM mRNA expression change [2] | TXNRD1 mRNA expression change [2] | NRF2 phosphorylation [3] | Ratio of survived cells (Drugs treated/Untreated), Average ([1]; CTOS#76, Pipe 2.5 microM) | Ratio of survived cells (Drugs treated/Untreated), Average ([1]; CTOS#76, Pipe 5 microM) | Ratio of survived cells (Drugs treated/Untreated), Average ([1]; CTOS#76, Pipe 10 microM) | NRF2 phosphorylation ([3]; listed as Piperlongmine)
CC[PH](CC)(CC)[Au][S][C@@H]1O[C@H](COC(C)=O)[C@@H](OC(C)=O)[C@H](OC(C)=O)[C@H]1OC(C)=O [Aura, Auranofin] | 2.83 µM | 68.4% | 56.4% | 39.5% | 36% and 56% and 30% | up‐regulated | up‐regulated | up‐regulated | less efficiently phosphorylated | – | – | – | –
COc1cc(/C=C/C(=O)N2CCC=CC2=O)cc(OC)c1OC [Pipe, Piperlongumine] | 7.15 µM | – | – | – | – | – | up‐regulated | – | not | 81.75% | 73% | 32.3333% | almost negligible
